Source: patent US9986723B2, “Screen and use of therapeutics for pancreatic ductal adenocarcinoma” (The Board of Regents of the University of Texas System, priority 2014, dated 2018)

How the values were obtained:
[1] = test system: PanIN and PDA tumor growth in KIC mice; test: Two week in vivo assay in Rgs16::GFP;KIC mice, Rgs16::GFP intensity at P29; set-up: species or system mouse; conditions: for effect on GFP levels when combined with GA: drug dissolved in 30% Cyclodextrin
From the text: Fluorescent microscopy and GFP quantification. Pancreatic expression of Rgs16::GFP in GFP-PDA mice was quantified using a Zeiss Lumar microscope. Images were captured using a single-channel camera (Hamamatsu) in 1344×1024 resolution with 1 sec exposure under 48× magnification with 1×1 binning, analog gain=10, and analog offset=2 settings. Pancreatic fields representing the tumor burden (3-4 fields for P15 pups and 5 or more for pups from P23 onwards) of the pancreas were imaged covering up to 50% of the organ surface area. All images were saved in gray-scale 16-bit tiff format. Images were quantified using NIH ImageJ software with background subtraction with a radius of 50 pixels. A variable and tight threshold was set to eliminate residual background. Intensities of all particles with size ≥5 pixels were summed to obtain the total light intensity per image.
Drug dosages. GFP-PDA mice were injected intraperitoneally with gemcitabine (Eli Lilly; Indianapolis, Ind., USA) (12.5 mg/kg/day given 3 days/week, dissolved in PBS), Abraxane (Cellgene; Summit, N.J., USA) (5 mg/kg/day given 2 days/week, diluted in 2% saline solution), BGB324 (BerGenBio, Bergen, Norway) (5 mg/kg/day given 5 days/week, dissolved in a mix of DMSO:ethanol:Kolliphor EL:water with 4:4:8:84 v/v ratio), and warfarin (0.2 mg/kg/day given 5 days/week, dissolved in PBS) according to injection schedules specified below. These doses were validated in prior mouse studies (Dineen et al., 2010; Kutluk Cenik et al., 2013; Ostapoff et al., 2013; Aguilera et al., 2014; Ostapoff et al., 2014). […] To verify tumor progression remains constant over the duration of these experiments, assays of untreated mice were interspersed with drug-treated cohorts, and warfarin-treated pups were the final cohort the inventors tested. Gemcitabine, Abraxane and warfarin were purchased from the UT Southwestern clinical pharmacy; BGB324 was a gift from BerGenBio.
Statistical analysis of GFP expression. GFP values were converted to log10 scale prior to statistical analysis. Graphs and their statistical comparisons were done using Graphpad Prism software with unpaired and two-tailed Student's t test. Significance between groups was indicated as ns (not significant); *p<0.05; **p<0.01; ***p<0.001; ****p<0.0001. Error bars in all the graphs are standard error mean (SEM). See FIGS. 7-8 for additional statistical analysis.
The therapeutic screening strategy was to treat KIC pups between P15-P28 (when PanIN and PDA are in rapid expansion) with anticancer drugs, sacrifice mice at P29, and capture Rgs16::GFP intensity with a dissection fluorescence microscope. Images of the five brightest non-overlapping fields of Rgs16::GFP expression were then collected, representing the regions of greatest tumor burden (FIGS. 17A-C).

[2] = test system: MiaShAxl; test: MTS cell growth assay, gemcitabine +/- warfarin; format: cell-based; conditions: Homo sapiens, 120 h, gemcitabine alone, 5 days, read-out: Gemcitabine (nmol/L) median IC50
Protocol: (§1) Cytotoxicity and augmentation of chemotherapy response was measured by MTS assays conducted in 96-well plates; cells were plated on day 0 and drug was added on day 1 in 4-fold dilutions. Maximum concentration of 2,000 nmol/L for gemcitabine was used with or without the addition of a constant concentration of 2 μM warfarin or 1.1 μM 10C9. Relative cell number was determined by adding MTS (Promega; final concentration […]), incubating for 1 to 3 hours at 37° C., and reading absorbance. Drug sensitivity curves and IC50s were calculated using in-house software.

[3] = test system: MiaPaca; test: MTS cell growth assay, gemcitabine +/- warfarin; format: cell-based; conditions: Homo sapiens, MIA PaCa-2, 120 h, gemcitabine alone, 5 days, read-out: Gemcitabine (nmol/L) median IC50
Protocol: as §1

[4] = test system: Capan; test: MTS cell growth assay, gemcitabine +/- warfarin; format: cell-based; conditions: Homo sapiens, 120 h, gemcitabine alone, 5 days, read-out: Gemcitabine (nmol/L) median IC50
Protocol: as §1

[5] = test system: Panc1; test: MTS cell growth assay, gemcitabine +/- warfarin; format: cell-based, human; conditions: Homo sapiens, PANC-1, 120 h; gemcitabine alone; 5 days, MTS; read-out: Gemcitabine (nmol/L) median IC50
Protocol: as §1

[6] = test system: ASPC; test: MTS cell growth assay, gemcitabine +/- warfarin; format: cell-based, human; conditions: Homo sapiens, 120 h; gemcitabine alone; 5 days, MTS; read-out: Gemcitabine (nmol/L) median IC50
Protocol: as §1

[7] = test system: primary PDA cells; test: Rgs16::GFP PDA primary cell culture, live cell counts after 24 hr drug treatment; format: cell-based, mouse; conditions: for effect on cell viability and proliferation: 24 hr, gemcitabine 10 μM, BGB324 or warfarin 1 or 10 μM; for recovery of cell growth after drug removal: passages without drug after 24 hr treatment
Protocol: Cell proliferation counts of primary PDA culture after 24 hr treatment with (FIG. 20A) gemcitabine (purple round); (FIG. 20B) BGB324 (green round); (FIG. 20C) warfarin (blue round); or (FIG. 20D) BGB324 with warfarin (green or blue round) at the indicated concentrations. PDA primary cells were plated at equal density (black open circle) at the start. Next day, cells were treated with drugs (D, red font) for 24 hr (red line). Approximate cell number at the start of drug treatment was obtained from another plate with equal density (red open circle). At the end of treatment, cells in each group were counted and subsequent passages started with cells plated at equal density (grey asterisk). Drug treated groups were allowed to grow without drug selection thereafter. Control cells (Ctrl) on separate plates were grown without drug and counted at the end of each passage (black open circle). PDA live cell numbers were obtained via counts using a hemocytometer after 2% Trypan blue staining to distinguish between living and dead cells under an inverted microscope with 10× objective. Statistical significances are based on comparison of drug-treated cell counts to Ctrl. […] Statistical analyses were obtained by comparing counts of drug-treated cells to Ctrl via unpaired and two-tailed Student's t-test. *, p<0.05; **, p<0.01; ***, p<0.001; ****, p<0.0001. Asterisks match the color of the comparison group.
Rgs16::GFP PDA primary cell culture. Primary Rgs16::GFP PDA cells were harvested from 6-week-old KIC mice. Cells were grown in 25 mM Glucose DMEM (HyClone) with 10% FBS (Serum Source International), penicillin and streptomycin (Life Technologies) on rat tail collagen typel (BD Biosciences) coated plates (0.5 μg/cm^2) in a humidified incubator at 37° C. and 5% CO2. Cells reaching confluency were washed twice with PBS (HyClone) and lifted with 0.05% Trypsin-EDTA (HyClone) treatment up to 10 min in the incubator. For drug tests in FIGS. 20A-D, primary PDA cells were incubated with gemcitabine (10 μM dissolved in PBS), warfarin (1 μM or 10 μM dissolved in water), BGB324 (1 μM or 10 μM dissolved in DMSO) or warfarin and BGB324 together for 24 hrs in 37° C. incubator. PDA live cell numbers were obtained via counts using a hemocytometer following 2% trypan blue staining to distinguish dead cells under an inverted microscope.

[8] = test system: Pan02; test: MTS cell growth assay, gemcitabine +/- warfarin; format: cell-based, murine; conditions: Mus musculus, Pan02, 120 h, gemcitabine alone, 5 days, read-out: Gemcitabine (nmol/L) median IC50
Protocol: as §1

[9] = test system: advanced PDA; conditions: patients; cited from earlier work
[10] = test system: advanced ovarian cancer; conditions: gemcitabine with carboplatin; cited from earlier work
[11] = Body weight of KIC weanling mice under chemotherapy; format: in vivo, mouse; conditions: P29
From the text: FIG. 19. […] Comparison of body weight of female (round) and male (square) non-KIC control (Ctrl, grey), and KIC untreated (Unt, black) or chemotherapy-treated KIC groups are shown. […] Significances are based on comparison of any KIC group to Ctrl via unpaired and two-tailed Student's t-test. ****, p<0.0001.

[12] = molecular target: T1, Axl (Homo sapiens, UniProt P30530); test: Phosphorylated Axl in Panc-1 cells (western blot, immunofluorescence); format: cell-based; conditions: overnight, 1% serum, 2 μM
T1 construct: Lysates were probed for total Axl (tAxl) and phosphorylated Axl (pAxl); endogenous in cells; host or cells: Panc-1
T1 sequence (P30530 26-894): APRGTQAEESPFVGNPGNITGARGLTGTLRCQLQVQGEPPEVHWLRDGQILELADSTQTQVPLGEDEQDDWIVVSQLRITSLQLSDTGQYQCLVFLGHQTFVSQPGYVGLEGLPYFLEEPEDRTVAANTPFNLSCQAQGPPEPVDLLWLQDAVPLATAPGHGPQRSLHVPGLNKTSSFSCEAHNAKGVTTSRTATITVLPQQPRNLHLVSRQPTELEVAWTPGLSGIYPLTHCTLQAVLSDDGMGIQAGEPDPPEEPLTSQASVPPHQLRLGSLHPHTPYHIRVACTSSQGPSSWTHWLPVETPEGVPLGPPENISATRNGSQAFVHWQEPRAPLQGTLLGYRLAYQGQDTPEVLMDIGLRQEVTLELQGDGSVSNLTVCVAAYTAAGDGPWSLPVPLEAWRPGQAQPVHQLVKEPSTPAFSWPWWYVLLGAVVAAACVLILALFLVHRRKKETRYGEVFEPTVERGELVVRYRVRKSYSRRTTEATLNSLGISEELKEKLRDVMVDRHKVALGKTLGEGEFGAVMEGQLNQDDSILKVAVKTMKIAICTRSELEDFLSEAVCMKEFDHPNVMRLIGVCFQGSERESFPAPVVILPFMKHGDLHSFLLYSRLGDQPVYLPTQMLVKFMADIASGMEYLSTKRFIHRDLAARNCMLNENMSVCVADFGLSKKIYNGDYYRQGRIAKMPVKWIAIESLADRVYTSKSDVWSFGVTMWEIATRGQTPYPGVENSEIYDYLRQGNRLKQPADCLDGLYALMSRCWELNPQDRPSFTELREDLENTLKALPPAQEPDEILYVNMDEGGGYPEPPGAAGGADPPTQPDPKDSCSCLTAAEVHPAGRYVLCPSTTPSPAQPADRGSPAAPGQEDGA
Protocol: (FIG. 24A) HEK293 cells engineered to stably express recombinant Gas6 were grown in the presence of Vitamin K or Vitamin K+warfarin. Gas6 levels and γ-carboxylation were assayed by immunoblotting conditioned media. Conditioned media from untransfected HEK293 cells was used as a negative control. (FIG. 24B) Panc1 cells were grown overnight in media with 1% serum with no additions (NT), warfarin (2 μM) or BGB324 (2 μM). Lysates were probed for total Axl (tAxl) and phosphorylated Axl (pAxl). (FIG. 24C) Panc1 cells were grown in the presence of control media, Vitamin K, warfarin or warfarin+Vitamin K. The level of phosphorylated Axl (pAXL, red) was determined by immunofluorescence. (FIG. 24D) Panc1 cells were grown overnight in media with 1% serum with no additions (control), warfarin (1 μM), Gas6 (1.3 nM) or Gas6+warfarin. Lysates were probed for phosphorylated Akt (pAkt) and actin. (FIG. 24E) Lysates from Panc1 tumors harvested from mice treated with control or warfarin were probed for expression of tAxl, pAxl, actin, pAKT, tAKT, and cleaved Parp. (FIG. 24F) The effect of warfarin on cell migration was assessed by a ‘scratch’ assay. Monolayers of the indicted cells were wounded with a pipet tip. The cells were incubated in media containing 2% serum+/−warfarin (2 μM) or media containing 2% serum+Gas6 (1.3 nM)+/−warfarin.

[13] = molecular target: vitamin K epoxide reductase (Homo sapiens, UniProt Q9BQB6); conditions: cited from earlier work
Sequence of vitamin K epoxide reductase (Q9BQB6 whole entry): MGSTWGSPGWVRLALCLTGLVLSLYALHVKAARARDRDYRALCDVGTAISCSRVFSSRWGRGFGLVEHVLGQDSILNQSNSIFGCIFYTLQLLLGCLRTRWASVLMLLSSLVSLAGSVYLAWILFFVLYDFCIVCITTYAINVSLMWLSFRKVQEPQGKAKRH

For `Cc1c(CN2CCN(C(=O)[C@H](C)O)CC2)sc2c(N3CCOCC3)nc(-c3cnc(N)nc3)nc12` [GDC980], the “effect on GFP levels when combined with GA” value [1] was “did not exert an effect”.
`Nc1ccn([C@@H]2O[C@H](CO)[C@@H](O)C2(F)F)c(=O)n1` [Gemcitabine] gave an IC50 [2] of 21 nmol/L, an IC50 [3] of 14.5 nmol/L and an IC50 [4] of 6.87 nmol/L. For the same compound, the IC50 [5] was 17.1 nmol/L, the IC50 [6] was 16 nmol/L and the “effect on PanIN lesions and PDA tumor growth (Rgs16::GFP expression)” value ([1]; KIC mice treated P15-P28, i.p., sacrificed P29) was “reduction of GFP expression”. The “effect on cell viability and proliferation” value [7] was “killed cells”, the “recovery of cell growth after drug removal” value [7] was “did not recover” and the IC50 [8] was 76.5 nmol/L. The survival [9] was 6.7 months, the “neutropenia (most commonly reported adverse effect)” value [10] was 90 % of patients and the “body weight gain / growth of weanling mice” value [11] was “retards body weight gain”.
In the case of `Nc1nc(Nc2ccc3c(c2)CC[C@@H](N2CCCC2)CC3)nn1-c1cc2c(nn1)-c1ccccc1CCC2` [BGB324], the “effect on GFP levels when combined with GA” value [1] is reported as “did not exert an effect”, the “phosphorylation of Axl (pAxl)” value [12] is reported as “inhibited phosphorylation of Axl” and the “effect on cell viability and proliferation” value [7] is reported as “cytostatic”. For the same compound, the “recovery of cell growth after drug removal” value [7] was “within four passages”.
For `CC(=O)C[C@@H](c1ccccc1)c1c(O)c2ccccc2oc1=O` [S-warfarin], the “potency in producing an anticoagulant response relative to the R-isomer” value [13] is listed as 2-5 times.
